Results taken from patent US20150030702A1, “NITRIC OXIDE-[…] DRESSINGS” (priority 2007, published 2015).
Where two headings read alike, the source gives them in different places.

What was measured:
[1] = cited from earlier work
[2] = nitrite 30 mM, 10 mM hydrochloric acid, hydroquinone 30 mM (FIG. 1); followed by a further slow increase
Protocol: The pH was measured prior to addition of hydroquinone and then at time-points indicated following addition of hydroquinone.
The concentration of nitrosothiol concentration can be estimated from the absorbance reading using the molar absorption coefficient for nitrosothiols=approximately 10,000 M^−1 cm^−1.

[3] = under normal conditions; cited from earlier work

Question: Which pKa [1] does the source give for `O=C(O)O` [bicarbonic acid] here?
Answer: 6.3

Question: Which “pH after rapid increase in the presence of hydroquinone” value [2] does the source give for `Oc1ccc(O)cc1` [hydroquinone, Hydroquinone] here?
Answer: about 5.0

Question: Which “Maximum solubility in water” value [3] does the source give for `[N]=O` [NO, nitric oxide] here?
Answer: approximately 1.7 mM

Question: With `O=NO` [Nitrite, nitrite] as the molecule, how does the pKa ([1]; at 25° C.) read?
Answer: about 3.4

Question: And the pKa [1]?
Answer: 3.4
